Values after ≈ are worked out from the molar mass of the structure shown.
Experiments:
Type in all cases: cell-based
[1] = test system: E. coli ATCC25922; assay: Bacterial growth minimal inhibitory concentration, E. coli ATCC25922; settings: quinolone-sensitive strain, cation-adjusted Mueller-Hinton Broth, microdilution; for MIC: Escherichia coli, ATCC25922
Method: (§1) Minimal Inhibitory Concentrations (MICs; mg/L) were determined in cation-adjusted Mueller-Hinton Broth by a microdilution method following the description given in “Methods for Dilution Antimicrobial Susceptibility Tests for Bacteria that Grow Aerobically”, Approved standard, 7th ed., Clinical and Laboratory Standards Institute (CLSI) Document M7-A7, Wayne, Pa., USA (2006).
(§2) All Example compounds were tested against several Gram-positive and Gram-negative bacteria. […] K. pneumoniae A-651 is a multiply-resistant (in particular quinolone-resistant) strain, while E. coli ATCC25922 and P. aeruginosa ATCC27853 are quinolone-sensitive strains.

[2] = test system: P. aeruginosa ATCC27853; assay: Bacterial growth minimal inhibitory concentration, P. aeruginosa ATCC27853; settings: quinolone-sensitive strain, cation-adjusted Mueller-Hinton Broth, microdilution; for MIC: Pseudomonas aeruginosa, ATCC27853
Method: as §1, §2

[3] = test system: K. pneumoniae A-651; assay: Bacterial growth minimal inhibitory concentration, K. pneumoniae A-651; settings: cation-adjusted Mueller-Hinton Broth, microdilution; for MIC: Klebsiella pneumoniae, A651, multiply-resistant (in particular quinolone-resistant) strain; for MIC for K. Pneumoniae A-651: multiply-resistant (in particular quinolone-resistant) strain
Method: as §1, §2

[4] = test system: wild-type E. coli A-1261; assay: Bacterial growth minimal inhibitory concentration of prodrugs, wild-type E. coli A-1261, with or without alkaline phosphatase or esterase; settings: for MIC for E. coli A-1261 In the absence of alkaline phosphatase or esterase: no alkaline phosphatase or esterase
Method: as §1
The compounds of Examples 6 and 21 were tested against wild-type E. coli A-1261 in the absence of alkaline phosphatase or esterase, in the presence of an alkaline phosphatase and in the presence of an esterase. The corresponding antibacterial test results are given in Table 2 hereafter (MICs in mg/L).

Compound | MIC [1] [µg/mL] | MIC [2] [µg/mL] | MIC [3] [µg/mL] | other results
C[C@@](CCc1nc2ccc(C#CC#CC3CN(C4COC4)C3)cc2s1)(C(=O)NO)S(C)(=O)=O [Example 1, (2R)—N-hydroxy-2-methyl-2-(methylsulfonyl)-4-(6-((1-(oxetan-3-yl)azetidin-3-yl)buta-1,3-diyn-1-yl)benzo[d]thiazol-2-yl)butanamide] | 0.25 (≈ 0.513 µM) | 1 (≈ 2.05 µM) | 0.25 (≈ 0.513 µM) | –
C[C@@](CCc1nc2ccc(C#CC#CCOC(=O)N3CCC(O)CC3)cc2s1)(C(=O)NO)S(C)(=O)=O [Example 2, (2R)-5-(2-(4-(hydroxyamino)-3-methyl-3-(methylsulfonyl)-4-oxobutyl)benzo[d]thiazol-6-yl)penta-2,4-diyn-1-yl 4-hydroxypiperidine-1-carboxylate] | – | – | – | MIC for E. coli ATCC25922 [1]: 0.25 µg/mL; MIC for P. aeruginosa ATCC27853 [2]: 1 µg/mL; MIC for K. Pneumoniae A-651 [3]: 0.5 µg/mL
C[C@@](CCc1nc2ccc(C#CC#CCOC(=O)N3CC(O)C3)cc2s1)(C(=O)NO)S(C)(=O)=O [Example 3, (2R)-5-(2-(4-(hydroxyamino)-3-methyl-3-(methylsulfonyl)-4-oxobutyl)benzo[d]thiazol-6-yl)penta-2,4-diyn-1-yl 3-hydroxyazetidine-1-carboxylate] | – | – | – | MIC for E. coli ATCC25922 [1]: 0.5 µg/mL; MIC for P. aeruginosa ATCC27853 [2]: 4 µg/mL; MIC for K. Pneumoniae A-651 [3]: 1 µg/mL
CN1CC(C#CC#Cc2ccc3nc(CC[C@](C)(C(=O)NO)S(C)(=O)=O)sc3c2)C1 [Example 4, (2R)—N-hydroxy-2-methyl-4-(6-((1-methylazetidin-3-yl)buta-1,3-diyn-1-yl)benzo[d]thiazol-2-yl)-2-(methylsulfonyl)butanamide] | 0.25 (≈ 0.561 µM) | 1 (≈ 2.24 µM) | 0.5 (≈ 1.12 µM) | –
C[C@@](CCc1nc2ccc(C#CC#CC3CN(CCO)C3)cc2s1)(C(=O)NO)S(C)(=O)=O [Example 5, (2R)—N-hydroxy-4-(6-((1-(2-hydroxyethyl)azetidin-3-yl)buta-1,3-diyn-1-yl)benzo[d]thiazol-2-yl)-2-methyl-2-(methylsulfonyl)butanamide] | 1 (≈ 2.1 µM) | 1 (≈ 2.1 µM) | 0.5 (≈ 1.05 µM) | –
C[C@@](CCc1nc2ccc(C#CC#CC3CN(CCOP(=O)(O)O)C3)cc2s1)(C(=O)NO)S(C)(=O)=O [Example 6, (R)-2-(3-((2-(4-(hydroxyamino)-3-methyl-3-(methylsulfonyl)-4-oxobutyl)benzo[d]thiazol-6-yl)buta-1,3-diyn-1-yl)azetidin-1-yl)ethyl dihydrogen phosphate] | – | – | – | MIC for E. coli A-1261 In the presence of an alkaline phosphatase (2 i.U./mL) [4]: 0.5 µg/mL; MIC for E. coli A-1261 In the presence of an esterase (10 i.U./mL) [4]: >16 µg/mL; MIC for E. coli A-1261 In the absence of alkaline phosphatase or esterase [4]: >16 µg/mL
C[C@@](CCc1nc2ccc(C#CC#C[C@@H]3CC[C@H]3CO)cc2s1)(C(=O)NO)S(C)(=O)=O [Example 7, (2R)—N-hydroxy-4-(6-(((1R,2R)-2-(hydroxymethyl)cyclobutyl)buta-1,3-diyn-1-yl)benzo[d]thiazol-2-yl)-2-methyl-2-(methylsulfonyl)butanamide] | 0.125 (≈ 0.271 µM) | 1 (≈ 2.17 µM) | 0.25 (≈ 0.543 µM) | –
CN1CC[C@H]1C#CC#Cc1ccc2nc(CC[C@](C)(C(=O)NO)S(C)(=O)=O)sc2c1 [Example 8, (2R)—N-hydroxy-2-methyl-4-(6-(((2S)-1-methylazetidin-2-yl)buta-1,3-diyn-1-yl)benzo[d]thiazol-2-yl)-2-(methylsulfonyl)butanamide] | 0.25 (≈ 0.561 µM) | 2 (≈ 4.49 µM) | 1 (≈ 2.24 µM) | –
C[C@@](CCc1nc2ccc(C#CC#CC3CN(CC4COC4)C3)cc2s1)(C(=O)NO)S(C)(=O)=O [Example 9, (2R)—N-hydroxy-2-methyl-2-(methylsulfonyl)-4-(6-((1-(oxetan-3-ylmethyl)azetidin-3-yl)buta-1,3-diyn-1-yl)benzo[d]thiazol-2-yl)butanamide] | 0.125 (≈ 0.249 µM) | 1 (≈ 1.99 µM) | 0.25 (≈ 0.498 µM) | –
C[C@@](CCc1nc2ccc(C#CC#CC3CN(CCCO)C3)cc2s1)(C(=O)NO)S(C)(=O)=O [Example 10, (2R)—N-hydroxy-4-(6-((1-(3-hydroxypropyl)azetidin-3-yl)buta-1,3-diyn-1-yl)benzo[d]thiazol-2-yl)-2-methyl-2-(methylsulfonyl)butanamide] | 0.25 (≈ 0.511 µM) | 1 (≈ 2.04 µM) | 0.5 (≈ 1.02 µM) | –
C[C@@](CCc1nc2ccc(C#CC#CC3CN(C4CC4)C3)cc2s1)(C(=O)NO)S(C)(=O)=O [Example 11, (2R)-4-(6-((1-cyclopropylazetidin-3-yl)buta-1,3-diyn-1-yl)benzo[d]thiazol-2-yl)-N-hydroxy-2-methyl-2-(methylsulfonyl)butanamide] | 0.063 (≈ 0.134 µM) | 2 (≈ 4.24 µM) | 0.125 (≈ 0.265 µM) | –
C[C@@](CCc1nc2ccc(C#CC#CC3CN(C4CC(O)C4)C3)cc2s1)(C(=O)NO)S(C)(=O)=O (stereo partly drawn) [Example 12, (2R)—N-hydroxy-4-(6-((1-(3-hydroxycyclobutyl)azetidin-3-yl)buta-1,3-diyn-1-yl)benzo[d]thiazol-2-yl)-2-methyl-2-(methylsulfonyl)butanamide] | 0.125 (≈ 0.249 µM) | 1 (≈ 1.99 µM) | 0.25 (≈ 0.498 µM) | –
CN1C[C@@H](C#CC#Cc2ccc3nc(CC[C@](C)(C(=O)NO)S(C)(=O)=O)sc3c2)[C@@H]1CO [Example 19, (2R)—N-hydroxy-4-(6-(((2R,3R)-2-(hydroxymethyl)-1-methylazetidin-3-yl)buta-1,3-diyn-1-yl)benzo[d]thiazol-2-yl)-2-methyl-2-(methylsulfonyl)butanamide] | – | – | – | MIC for E. coli ATCC25922 [1]: 0.5 µg/mL; MIC for P. aeruginosa ATCC27853 [2]: 1 µg/mL; MIC for K. Pneumoniae A-651 [3]: 2 µg/mL
(2R)-2-(3-((4-(5-((1-(3-hydroxypropyl)azetidin-3-yl)buta-1,3-diyn-1-yl)benzo[d]thiazol-2-yl)-2-methyl-2-(methylsulfonyl)butanamido)oxy)-3-oxopropyl)phenyl dihydrogen phosphate [Example 21] | – | – | – | MIC for E. coli A-1261 In the presence of an alkaline phosphatase (2 i.U./mL) [4]: 0.5 µg/mL; MIC for E. coli A-1261 In the presence of an esterase (10 i.U./mL) [4]: 8 µg/mL; MIC for E. coli A-1261 In the absence of alkaline phosphatase or esterase [4]: 0.5 µg/mL

More lines, main results first:

MIC [1] [µg/mL] | MIC [2] [µg/mL] | MIC [3] [µg/mL] | Compound | other results
0.063 | 1 | 0.25 | CN1CCC(F)(C#CC#Cc2ccc3nc(CC[C@](C)(C(=O)NO)S(C)(=O)=O)sc3c2)C1 (mixture of isomers) [Example 14, (2R)-4-(6-(((3RS)-3-fluoro-1-methylpyrrolidin-3-yl)buta-1,3-diyn-1-yl)benzo[d]thiazol-2-yl)-N-hydroxy-2-methyl-2-(methylsulfonyl)butanamide] | –
0.125 (≈ 0.262 µM) | 1 (≈ 2.09 µM) | 0.25 (≈ 0.523 µM) | C[C@@](CCc1nc2ccc(C#CC#CC3CN(CCF)C3)cc2s1)(C(=O)NO)S(C)(=O)=O [Example 13, (2R)-4-(6-((1-(2-fluoroethyl)azetidin-3-yl)buta-1,3-diyn-1-yl)benzo[d]thiazol-2-yl)-N-hydroxy-2-methyl-2-(methylsulfonyl)butanamide] | –
0.25 (≈ 0.509 µM) | 1 (≈ 2.03 µM) | 0.5 (≈ 1.02 µM) | CN1CCC(F)(C#CC#Cc2ccc3nc(CC[C@](C)(C(=O)NO)S(C)(=O)=O)sc3c2)CC1 [Example 15, (2R)-4-(6-((4-fluoro-1-methylpiperidin-4-yl)buta-1,3-diyn-1-yl)benzo[d]thiazol-2-yl)-N-hydroxy-2-methyl-2-(methylsulfonyl)butanamide] | –
0.125 (≈ 0.272 µM) | 0.5 (≈ 1.09 µM) | 0.5 (≈ 1.09 µM) | C[C@@H]1[C@@H](C#CC#Cc2ccc3nc(CC[C@](C)(C(=O)NO)S(C)(=O)=O)sc3c2)CN1C [Example 16, (2R)-4-(6-(((2R,3S)-1,2-dimethylazetidin-3-yl)buta-1,3-diyn-1-yl)benzo[d]thiazol-2-yl)-N-hydroxy-2-methyl-2-(methylsulfonyl)butanamide] | –
0.5 (≈ 1.05 µM) | 1 (≈ 2.1 µM) | 1 (≈ 2.1 µM) | CN1C[C@@H](C#CC#Cc2ccc3nc(CC[C@](C)(C(=O)NO)S(C)(=O)=O)sc3c2)[C@@H]1CO [Example 17, (2R)—N-hydroxy-4-(6-(((2R,3R)-2-(hydroxymethyl)-1-methylazetidin-3-yl)buta-1,3-diyn-1-yl)benzo[d]thiazol-2-yl)-2-methyl-2-(methylsulfonyl)butanamide] | –
0.125 (≈ 0.281 µM) | 1 (≈ 2.24 µM) | 0.25 (≈ 0.561 µM) | CNC1(C#CC#Cc2ccc3nc(CC[C@](C)(C(=O)NO)S(C)(=O)=O)sc3c2)CC1 [Example 18, (2R)—N-hydroxy-2-methyl-4-(6-((1-(methylamino)cyclopropyl)buta-1,3-diyn-1-yl)benzo[d]thiazol-2-yl)-2-(methylsulfonyl)butanamide] | –
0.5 (≈ 1.02 µM) | 1 (≈ 2.04 µM) | 1 (≈ 2.04 µM) | CN1C[C@@H](C#CC#Cc2ccc3nc(CC[C@](C)(C(=O)NO)S(C)(=O)=O)sc3c2)C[C@@H]1CO [Example 20, (2R)—N-hydroxy-4-(6-(((3R,5R)-5-(hydroxymethyl)-1-methylpyrrolidin-3-yl)buta-1,3-diyn-1-yl)benzo[d]thiazol-2-yl)-2-methyl-2-(methylsulfonyl)butanamide] | –

From patent publication US20190315731A1, “6-(BUTA-1,3-DIYN-1-YL)BENZO[D]THIAZOLE DERIVATIVES” (Idorsia Pharmaceuticals Ltd., priority 2016, published 2019)
